Data from PubChem BioAssay AID328 (DTP/NCI, 2004).
Where “and” joins values, the source holds several entries; their conditions need not be identical. Equal entries are not always repeated. Inconclusive results and toxic doses are left out.

System: BDF1 mice, P388 leukemia ip, median survival T/C
Assay: NCI In Vivo Anticancer Drug Screen. Data for tumor model P388 Leukemia (intraperitoneal) in B6D2F1 (BDF1) mice
Details: endpoint: median survival time, higher = longer survival
Method in brief: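 Transplantable tumour in mice; compound vs vehicle dosing; survival scored; ratio of treated to control reported.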

[1] = dose: 50.0 mg/kg/injection, schedule: Q01DX009 (ip), vehicle: saline with Tween-80
[2] = dose: 50.0 mg/kg/injection, schedule: Q04DX003 (ip), vehicle: saline with Tween-80
[3] = dose: 100.0 mg/kg/injection, schedule: Q04DX003 (ip), vehicle: saline with Tween-80
[4] = dose: 25.0 mg/kg/injection, schedule: Q04DX003 (ip), vehicle: saline
[5] = dose: 100.0 mg/kg/injection, schedule: Q04DX003 (ip), vehicle: Klucel (hydroxypropylcellulose) (HPC)
[6] = dose: 200.0 mg/kg/injection, schedule: Q04DX003 (ip), vehicle: Klucel (hydroxypropylcellulose) (HPC)
[7] = dose: 400.0 mg/kg/injection, schedule: Q04DX003 (ip), vehicle: Klucel (hydroxypropylcellulose) (HPC)
[8] = dose: 100.0 mg/kg/injection, schedule: Q01DX009 (ip), vehicle: saline with Tween-80
[9] = dose: 200.0 mg/kg/injection, schedule: Q01DX009 (ip), vehicle: saline with Tween-80
[10] = dose: 200.0 mg/kg/injection, schedule: Q04DX003 (ip), vehicle: saline with Tween-80

`COc1cccn(C/C=C(\C)CCC=C(C)C)c1=O` was tested, and the T/C (dose: 25.0 mg/kg/injection, schedule: Q01DX009 (ip), vehicle: saline with Tween-80) was 116 % of control, the T/C [1] was 109 % of control and the T/C [2] was 91 % of control. The T/C (dose: 80.0 mg/kg/injection, schedule: Q01DX009 (ip), vehicle: saline with Tween-80) was 93 % of control, the T/C [3] was 100 % of control and the T/C (dose: 150.0 mg/kg/injection, schedule: Q01DX009 (ip), vehicle: saline with Tween-80) was 116 % of control.
For `COc1ccccc1C(=O)NN`, the T/C (dose: 6.25 mg/kg/injection, schedule: Q04DX003 (ip), vehicle: saline) was 100 % of control, the T/C (dose: 12.5 mg/kg/injection, schedule: Q04DX003 (ip), vehicle: saline) was 110 % of control and the T/C [4] was 105 % of control.
For `CCC12C=CCN3CCC4(c5cc(C(CN6CCCCC6)c6cn(C)c7ccccc67)c(OC)cc5N(C)C4C(O)(C(=O)OC)C1OC(C)=O)C32` (centres undefined), the T/C (dose: 4.0 mg/kg/injection, schedule: Q01DX009 (ip), vehicle: saline) was 104 % of control, the T/C (dose: 8.0 mg/kg/injection, schedule: Q01DX009 (ip), vehicle: saline) was 98 % of control and the T/C (dose: 16.0 mg/kg/injection, schedule: Q01DX009 (ip), vehicle: saline) was 98 % of control. For the same compound, the T/C (dose: 32.0 mg/kg/injection, schedule: Q01DX009 (ip), vehicle: saline) was 93 % of control and 116 % of control.
In the case of `COC(=O)C1C2CCc3cc(OC)ccc3C2CC(=O)C1(C)C(=O)OC` (centres undefined), the T/C (dose: 100.0 mg/kg/injection, schedule: Q04DX003 (sc), vehicle: steriod suspending solution) is reported as 109 % of control, the T/C (dose: 200.0 mg/kg/injection, schedule: Q04DX003 (sc), vehicle: steriod suspending solution) is reported as 90 % of control and the T/C (dose: 400.0 mg/kg/injection, schedule: Q04DX003 (sc), vehicle: steriod suspending solution) is reported as 95 % of control.
For `CC(=O)Nc1ccc2c(O)cc(S(=O)(=O)O)cc2c1`, the T/C (dose: 100.0 mg/kg/injection, schedule: Q01DX009 (ip), vehicle: saline) was 107 % of control, the T/C (dose: 200.0 mg/kg/injection, schedule: Q01DX009 (ip), vehicle: saline) was 98 % of control and the T/C (dose: 400.0 mg/kg/injection, schedule: Q01DX009 (ip), vehicle: saline) was 114 % of control.
`COc1cc2cc3c4ccc(OC)c(OC)c4cc[n+]3c(C)c2cc1OC` (tested in a mixture with another compound) was tested, and the T/C (dose: 20.0 mg/kg/injection, schedule: Q01DX009 (ip), vehicle: saline) was 164 % of control, the T/C (dose: 40.0 mg/kg/injection, schedule: Q01DX009 (ip), vehicle: saline) was 150 % of control and 156 % of control and the T/C (dose: 80.0 mg/kg/injection, schedule: Q01DX009 (ip), vehicle: saline) was 168 % of control and 172 % of control. For the same compound, the T/C (dose: 120.0 mg/kg/injection, schedule: Q01DX009 (ip), vehicle: saline) was 172 % of control and 185 % of control.
With `COc1ccc(CC(C(=O)O)C(Cc2ccc(OC)c(OC)c2)C(=O)O)cc1OC` (centres undefined) the T/C [5] was 109 % of control, the T/C [6] was 100 % of control and the T/C [7] was 109 % of control.
With `COc1c(Cl)cc(Cl)cc1Cl` the T/C (dose: 100.0 mg/kg/injection, schedule: Q01DX009 (ip), vehicle: other) was 90 % of control, the T/C (dose: 100.0 mg/kg/injection, schedule: Q04DX003 (ip), vehicle: other) was 90 % of control and the T/C (dose: 200.0 mg/kg/injection, schedule: Q01DX009 (ip), vehicle: other) was 100 % of control. The T/C (dose: 200.0 mg/kg/injection, schedule: Q04DX003 (ip), vehicle: other) was 105 % of control, the T/C (dose: 400.0 mg/kg/injection, schedule: Q01DX009 (ip), vehicle: other) was 114 % of control and the T/C (dose: 400.0 mg/kg/injection, schedule: Q04DX003 (ip), vehicle: other) was 110 % of control.
In the case of `C[n+]1ccc(Nc2ccc(NC(=O)c3ccc(Nc4cc[n+](C)c5ccc([N+](=O)[O-])cc45)cc3[N+](=O)[O-])cc2)cc1`, the T/C [4] is reported as 105 % of control and 116 % of control and the T/C (dose: 200.0 mg/kg/injection, schedule: Q04DX003 (ip), vehicle: saline) is reported as 158 % of control and 203 % of control.
`O=[N+]([O-])c1cccc(/C=C/c2cc(N(CCO)CCO)c3ccccc3n2)c1` was tested, and the T/C [1] was 91 % of control, the T/C [8] was 89 % of control and the T/C [9] was 94 % of control.
For `CC(C)CC1NC(=O)C(Cc2ccc(OCc3ccccc3)cc2)NC1=O` (centres undefined), the T/C (dose: 40.0 mg/kg/injection, schedule: Q04DX003 (ip), vehicle: saline with Tween-80) was 95 % of control, the T/C [1] was 101 % of control and the T/C (dose: 66.0 mg/kg/injection, schedule: Q04DX003 (ip), vehicle: saline with Tween-80) was 91 % of control. For the same compound, the T/C [8] was 95 % of control, the T/C [3] was 87 % of control and the T/C (dose: 166.0 mg/kg/injection, schedule: Q04DX003 (ip), vehicle: saline with Tween-80) was 95 % of control. The T/C [9] was 93 % of control, the T/C [10] was 111 % of control and the T/C (dose: 276.0 mg/kg/injection, schedule: Q04DX003 (ip), vehicle: saline with Tween-80) was 91 % of control. For the same compound, the T/C (dose: 400.0 mg/kg/injection, schedule: Q01DX009 (ip), vehicle: saline with Tween-80) was 96 % of control and the T/C (dose: 400.0 mg/kg/injection, schedule: Q04DX003 (ip), vehicle: saline with Tween-80) was 111 % of control.
With `CN(C)C=Nc1ccccc1` the T/C (dose: 100.0 mg/kg/injection, schedule: Q01DX009 (ip), vehicle: Klucel (hydroxypropylcellulose) (HPC)) was 113 % of control, the T/C (dose: 200.0 mg/kg/injection, schedule: Q01DX009 (ip), vehicle: Klucel (hydroxypropylcellulose) (HPC)) was 95 % of control and the T/C (dose: 400.0 mg/kg/injection, schedule: Q01DX009 (ip), vehicle: Klucel (hydroxypropylcellulose) (HPC)) was 109 % of control.
For `CC1C=CC(C)C(C(=O)c2ccccc2)C1C(=O)c1ccccc1` (centres undefined), the T/C [5] was 104 % of control, the T/C [6] was 100 % of control and the T/C [7] was 100 % of control.
In the case of `CCCCNCCC(SSSC(CCNCCCC)c1ccc(Cl)cc1)c1ccc(Cl)cc1` (centres undefined), the T/C (dose: 6.25 mg/kg/injection, schedule: Q04DX003 (ip), vehicle: saline with Tween-80) is reported as 104 % of control, the T/C (dose: 12.5 mg/kg/injection, schedule: Q04DX003 (ip), vehicle: saline with Tween-80) is reported as 100 % of control and the T/C (dose: 25.0 mg/kg/injection, schedule: Q04DX003 (ip), vehicle: saline with Tween-80) is reported as 109 % of control.
With `CC(=O)Nc1ccc(S(=O)(=O)SC(F)(F)F)cc1` the T/C (dose: 3.13 mg/kg/injection, schedule: Q01DX010 (ip), vehicle: saline) was 100 % of control, the T/C (dose: 6.25 mg/kg/injection, schedule: Q01DX010 (ip), vehicle: saline) was 104 % of control and the T/C (dose: 12.5 mg/kg/injection, schedule: Q01DX010 (ip), vehicle: saline) was 100 % of control.
With `CC1(C)OC2(C)CCC1C(=O)C2N1CCCCC1` (centres undefined) the T/C (dose: 50.0 mg/kg/injection, schedule: Q01DX005 (ip), vehicle: saline with Tween-80) was 105 % of control, the T/C (dose: 100.0 mg/kg/injection, schedule: Q01DX005 (ip), vehicle: saline with Tween-80) was 95 % of control and the T/C (dose: 200.0 mg/kg/injection, schedule: Q01DX005 (ip), vehicle: saline with Tween-80) was 101 % of control.
For `CC(C)(C)OC(=O)N1Cc2cc3ccccc3nc2C1`, the T/C [2] was 100 % of control, the T/C [3] was 118 % of control and the T/C [10] was 109 % of control.
With `CCC[CH2][Sn]([Cl])([CH2]CCC)[S]C(=S)NCCNC(=S)[S][Sn]([Cl])([CH2]CCC)[CH2]CCC` the T/C (dose: 1.56 mg/kg/injection, schedule: Q04DX003 (ip), vehicle: Klucel (hydroxypropylcellulose) (HPC)) was 110 % of control, the T/C (dose: 3.12 mg/kg/injection, schedule: Q01DX009 (ip), vehicle: Klucel (hydroxypropylcellulose) (HPC)) was 105 % of control and the T/C (dose: 3.13 mg/kg/injection, schedule: Q04DX003 (ip), vehicle: Klucel (hydroxypropylcellulose) (HPC)) was 124 % of control. The T/C (dose: 6.25 mg/kg/injection, schedule: Q01DX009 (ip), vehicle: Klucel (hydroxypropylcellulose) (HPC)) was 153 % of control, the T/C (dose: 6.25 mg/kg/injection, schedule: Q04DX003 (ip), vehicle: Klucel (hydroxypropylcellulose) (HPC)) was 154 % of control and the T/C (dose: 12.5 mg/kg/injection, schedule: Q01DX009 (ip), vehicle: Klucel (hydroxypropylcellulose) (HPC)) was 156 % of control and 158 % of control. For the same compound, the T/C (dose: 12.5 mg/kg/injection, schedule: Q04DX003 (ip), vehicle: Klucel (hydroxypropylcellulose) (HPC)) was 100 % of control and 105 % of control and the T/C (dose: 25.0 mg/kg/injection, schedule: Q01DX009 (ip), vehicle: Klucel (hydroxypropylcellulose) (HPC)) was 194 % of control.
